Data reported in article PMC10559868, “Spectroscopic study and molecular simulation: Bovine serum albumin binding with anticancer Pt complex of amyl dithiocarbamate ligand” (Heliyon, 2023).

Molecular target: T1, Bovine serum albumin (BSA) (Bos taurus, UniProt P02769)
T1 construct: gene ALB
Settings: read-out: Kb M^-1))

T1 sequence (P02769 25-607): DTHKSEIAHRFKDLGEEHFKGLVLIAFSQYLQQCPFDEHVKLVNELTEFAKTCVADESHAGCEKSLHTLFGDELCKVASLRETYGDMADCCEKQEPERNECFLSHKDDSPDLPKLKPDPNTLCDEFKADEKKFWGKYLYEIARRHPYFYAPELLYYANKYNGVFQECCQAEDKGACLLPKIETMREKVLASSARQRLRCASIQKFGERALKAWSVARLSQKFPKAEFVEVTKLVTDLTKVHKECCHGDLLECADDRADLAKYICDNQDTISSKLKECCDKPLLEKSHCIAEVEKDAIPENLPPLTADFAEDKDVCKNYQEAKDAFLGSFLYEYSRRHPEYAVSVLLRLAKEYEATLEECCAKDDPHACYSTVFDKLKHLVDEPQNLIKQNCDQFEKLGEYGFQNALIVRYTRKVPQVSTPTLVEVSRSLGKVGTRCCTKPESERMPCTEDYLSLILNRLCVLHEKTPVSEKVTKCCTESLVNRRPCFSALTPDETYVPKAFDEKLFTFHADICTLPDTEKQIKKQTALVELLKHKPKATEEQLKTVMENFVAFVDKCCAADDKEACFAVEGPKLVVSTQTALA

CCCCCNC1=[S+][Pt-2]2([S]1)[n+]1ccccc1-c1cccc[n+]12 [[Pt(bpy)(amyl.dtc)]NO3]
Kd: 148 µM
